Results published in patent US9884828B2, “Substituted cinnolines as inhibitors of LRRK2 kinase activity” (Imago Pharmaceuticals, Inc., priority 2011, dated 2018).

Target: recombinant GST-LRRK2 (wild-type) (Homo sapiens (Human), UniProt Q5S007)
Assay: LRRK2 TR-FRET peptide assay (in vitro kinase activity), wild-type
Assay type: biochemical
Settings: 100 μM ATP, 100 nM biotin-LRRKtide substrate, 10 nM kinase, 60 minutes at room temperature
Summary of the method: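 Recombinant GST-LRRK2 wild-type pre-incubated with serially diluted compound in 1% DMSO for 15 min at room temperature, with kinase activity read by TR-FRET using a peptide substrate. IC50 derived from eight-point dose-response curves, with inhibition normalized to the plate's control and background wells.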

Sequence of recombinant GST-LRRK2 (wild-type) (Q5S007 whole entry): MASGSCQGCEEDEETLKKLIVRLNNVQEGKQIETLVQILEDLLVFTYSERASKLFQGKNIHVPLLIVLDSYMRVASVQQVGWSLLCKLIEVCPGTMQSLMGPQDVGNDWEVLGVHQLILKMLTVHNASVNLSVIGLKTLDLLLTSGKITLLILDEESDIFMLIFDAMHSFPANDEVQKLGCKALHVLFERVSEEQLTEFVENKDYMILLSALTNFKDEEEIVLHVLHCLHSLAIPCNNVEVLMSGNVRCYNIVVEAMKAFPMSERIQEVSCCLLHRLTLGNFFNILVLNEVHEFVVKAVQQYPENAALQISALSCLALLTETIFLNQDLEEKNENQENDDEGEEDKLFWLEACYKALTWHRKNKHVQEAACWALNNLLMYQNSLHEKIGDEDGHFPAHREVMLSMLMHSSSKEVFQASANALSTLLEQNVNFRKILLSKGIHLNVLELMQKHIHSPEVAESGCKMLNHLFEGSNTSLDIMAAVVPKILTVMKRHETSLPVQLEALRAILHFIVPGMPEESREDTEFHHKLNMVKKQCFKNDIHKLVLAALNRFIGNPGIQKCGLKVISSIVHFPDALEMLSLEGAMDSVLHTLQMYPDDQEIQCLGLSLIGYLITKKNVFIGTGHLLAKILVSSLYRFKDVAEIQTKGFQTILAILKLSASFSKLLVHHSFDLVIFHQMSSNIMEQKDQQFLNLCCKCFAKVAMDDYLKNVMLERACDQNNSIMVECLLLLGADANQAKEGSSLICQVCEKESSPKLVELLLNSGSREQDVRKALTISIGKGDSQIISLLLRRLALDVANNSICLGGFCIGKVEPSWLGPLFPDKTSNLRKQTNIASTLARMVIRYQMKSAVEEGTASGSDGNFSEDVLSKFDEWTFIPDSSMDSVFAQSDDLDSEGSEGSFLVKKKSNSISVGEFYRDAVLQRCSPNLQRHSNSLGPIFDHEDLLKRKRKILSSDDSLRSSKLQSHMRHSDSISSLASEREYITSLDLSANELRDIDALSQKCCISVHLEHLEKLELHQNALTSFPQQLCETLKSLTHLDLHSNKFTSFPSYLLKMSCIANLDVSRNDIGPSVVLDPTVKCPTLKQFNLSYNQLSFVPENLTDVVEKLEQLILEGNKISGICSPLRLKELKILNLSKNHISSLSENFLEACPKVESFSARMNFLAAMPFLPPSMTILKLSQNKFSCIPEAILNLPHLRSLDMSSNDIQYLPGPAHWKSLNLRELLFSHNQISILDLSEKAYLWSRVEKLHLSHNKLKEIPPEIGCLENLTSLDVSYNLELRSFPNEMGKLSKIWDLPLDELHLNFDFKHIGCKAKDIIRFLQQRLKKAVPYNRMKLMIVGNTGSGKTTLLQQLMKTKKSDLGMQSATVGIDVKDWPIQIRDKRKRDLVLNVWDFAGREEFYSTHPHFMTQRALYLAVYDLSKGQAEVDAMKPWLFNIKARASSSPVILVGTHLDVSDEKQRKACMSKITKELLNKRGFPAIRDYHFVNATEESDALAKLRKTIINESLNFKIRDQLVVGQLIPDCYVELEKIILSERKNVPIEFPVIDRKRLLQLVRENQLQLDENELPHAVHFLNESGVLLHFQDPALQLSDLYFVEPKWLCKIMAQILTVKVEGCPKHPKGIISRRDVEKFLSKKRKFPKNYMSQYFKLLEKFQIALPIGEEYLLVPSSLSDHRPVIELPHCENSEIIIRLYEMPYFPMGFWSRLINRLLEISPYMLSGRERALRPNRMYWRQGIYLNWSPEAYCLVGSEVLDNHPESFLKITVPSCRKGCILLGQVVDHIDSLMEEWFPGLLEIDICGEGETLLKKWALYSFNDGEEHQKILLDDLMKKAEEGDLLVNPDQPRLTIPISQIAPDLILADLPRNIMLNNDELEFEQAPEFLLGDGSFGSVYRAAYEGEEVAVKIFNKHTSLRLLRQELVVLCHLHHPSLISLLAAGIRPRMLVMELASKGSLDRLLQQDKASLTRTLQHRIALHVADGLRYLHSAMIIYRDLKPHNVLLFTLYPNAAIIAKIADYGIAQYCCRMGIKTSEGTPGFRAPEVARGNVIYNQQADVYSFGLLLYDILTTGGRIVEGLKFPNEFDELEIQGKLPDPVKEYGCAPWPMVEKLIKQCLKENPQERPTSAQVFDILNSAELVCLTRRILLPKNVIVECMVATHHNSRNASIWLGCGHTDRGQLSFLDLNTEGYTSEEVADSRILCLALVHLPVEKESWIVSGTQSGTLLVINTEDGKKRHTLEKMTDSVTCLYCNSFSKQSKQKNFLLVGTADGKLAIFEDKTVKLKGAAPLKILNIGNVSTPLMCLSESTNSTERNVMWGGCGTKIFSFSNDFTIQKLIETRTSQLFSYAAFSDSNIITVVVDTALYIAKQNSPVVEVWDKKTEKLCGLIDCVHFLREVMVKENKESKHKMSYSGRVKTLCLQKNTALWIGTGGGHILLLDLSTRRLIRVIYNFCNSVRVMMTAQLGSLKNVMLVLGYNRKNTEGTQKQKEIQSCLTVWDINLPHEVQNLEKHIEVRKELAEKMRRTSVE

| Structure (SMILES) | IC50 |
| --- | --- |
| C#Cc1nnc2cc(-c3ccc(S(C)(=O)=O)cc3)ccc2c1NC(C)C [Compound 10-87, 3-ethynyl-N-isopropyl-7-(4-(methylsulfonyl)phenyl)cinnolin-4-amine] | 990 nM |
| COc1cc(-c2ncccc2F)ccc1-c1ccc2c(N[C@H](C)C3CC3)c(C(N)=O)nnc2c1 [Compound 11-218, (R)-4-(1-Cyclopropylethylamino)-7-(4-(3-fluoropyridin-2-yl)-2-methoxyphenyl)cinnoline-3-carboxamide] | 43 nM |
| COc1cc(-c2nccnc2OC)ccc1-c1ccc2c(N[C@H](C)C3CC3)c(C(N)=O)nnc2c1 [Compound 11-220, (R)-4-(1-cyclopropylethylamino)-7-(2-methoxy-4-(3-methoxypyrazin-2-yl)phenyl)cinnoline-3-carboxamide] | 25 nM |
| COc1cc(-c2nccn2C)ccc1-c1ccc2c(N[C@H](C)C3CC3)c(C(N)=O)nnc2c1 [Compound 11-221, (R)-4-(1-cyclopropylethylamino)-7-(2-methoxy-4-(1-methyl-1H-imidazol-2-yl)phenyl)cinnoline-3-carboxamide] | 9 nM |

Other lines, results leading:

| IC50 | Structure (SMILES) |
| --- | --- |
| 410 nM | CNC(=O)c1nnc2cc(-c3ccc(S(C)(=O)=O)cc3)ccc2c1NC(C)C [Compound 12-227, 4-(Isopropylamino)-N-methyl-7-(4-(methylsulfonyl)phenyl)cinnoline-3-carboxamide] |
| > 1000 nM | CNC(=O)c1nnc2cc(-c3ccc(S(C)(=O)=O)cc3)ccc2c1NC [Compound 12-229, N-methyl-4-(methylamino)-7-(4-(methylsulfonyl)phenyl)cinnoline-3-carboxamide] |
| 170 nM | CNC(=O)c1nnc2cc(-c3ccc(S(C)(=O)=O)cc3)ccc2c1N[C@H](C)C1CC1 [Compound 12-231, (R)-4-(1-cyclopropylethylamino)-N-methyl-7-(4-(methylsulfonyl)phenyl)cinnoline-3-carboxamide] |
| 51 nM | CC(C)Nc1c(-c2ncc[nH]2)nnc2cc(-c3ccc(S(C)(=O)=O)cc3)ccc12 [Compound 13-233, 3-(1H-imidazol-2-yl)-N-isopropyl-7-(4-(methylsulfonyl)phenyl)cinnolin-4-amine] |
| 1600 nM | C=C(C)c1ccc2c(N[C@H](C)C3CC3)c(C(=O)NC)nnc2c1 [Compound 14-235, (R)-4-(1-cyclopropylethylamino)-N-methyl-7-(prop-1-en-2-yl)cinnoline-3-carboxamide] |
| 1950 nM | CNC(=O)c1nnc2cc(C3CC3)ccc2c1N[C@H](C)C1CC1 [Compound 14-236, (R)-7-cyclopropyl-4-(1-cyclopropylethylamino)-N-methylcinnoline-3-carboxamide] |
